Biological target: Smo (Homo sapiens, UniProt Q99835)
Experiment: Bodipy-Cyclopamine Binding Assay (confirmation assay), Hek293-SMO cells
Description: The confirmation assay is based on Bodipy-Cyclopamine Binding Assay:
Bodipy-Cyclopamine binding assay is a fluorescence based assay used to analysis the binding of Smo agonists. […] Bodipy-Cyclopamine was purchased from Toronto Research Chemicals and dissolved in methanol.
Hek293-SMO cells were plated in 96-well-plate (3340, Corning), the final cell concentration is 15,000 cells/well in 100 ul 1% serum-containing DMEM. The plates were incubated in 37 degree for additional 48 hours.
Hek293-SMO plate were washed with PBS and fixed with 4% paraformaldehyde (PFA)/PBS for 20 min at room temperature. After removing the PFA buffer, the cells were incubated with DAPI/PBS (5 ug/mL) for 10 min and followed by twice wash with PBS. After wash, cells were incubated for 2 h at room temperature in binding buffer (HBSS W/O Ca^2+ and Mg^2+) containing 100 nM bodipy-cyclopamine and compounds over a range of concentrations from 0-10 μM for competitive binding. After incubation, the cells were washed twice with the PBS. The fluorescence images were automatically captured and analyzed by a high content fluorescence imaging system (Arrayscan VTI, Thermo). GDC-0449 was used as reference compound to normalize the data. IC50 values were calculated with GraphPad Prism software using the sigmoidal dose-response function. The Ki was calculated following the Cheng-Prusoff equation, as Ki=IC50/[1+[bodipy-cyclopamine]/Kd)].

Sequence of Smo (Q99835 28-787): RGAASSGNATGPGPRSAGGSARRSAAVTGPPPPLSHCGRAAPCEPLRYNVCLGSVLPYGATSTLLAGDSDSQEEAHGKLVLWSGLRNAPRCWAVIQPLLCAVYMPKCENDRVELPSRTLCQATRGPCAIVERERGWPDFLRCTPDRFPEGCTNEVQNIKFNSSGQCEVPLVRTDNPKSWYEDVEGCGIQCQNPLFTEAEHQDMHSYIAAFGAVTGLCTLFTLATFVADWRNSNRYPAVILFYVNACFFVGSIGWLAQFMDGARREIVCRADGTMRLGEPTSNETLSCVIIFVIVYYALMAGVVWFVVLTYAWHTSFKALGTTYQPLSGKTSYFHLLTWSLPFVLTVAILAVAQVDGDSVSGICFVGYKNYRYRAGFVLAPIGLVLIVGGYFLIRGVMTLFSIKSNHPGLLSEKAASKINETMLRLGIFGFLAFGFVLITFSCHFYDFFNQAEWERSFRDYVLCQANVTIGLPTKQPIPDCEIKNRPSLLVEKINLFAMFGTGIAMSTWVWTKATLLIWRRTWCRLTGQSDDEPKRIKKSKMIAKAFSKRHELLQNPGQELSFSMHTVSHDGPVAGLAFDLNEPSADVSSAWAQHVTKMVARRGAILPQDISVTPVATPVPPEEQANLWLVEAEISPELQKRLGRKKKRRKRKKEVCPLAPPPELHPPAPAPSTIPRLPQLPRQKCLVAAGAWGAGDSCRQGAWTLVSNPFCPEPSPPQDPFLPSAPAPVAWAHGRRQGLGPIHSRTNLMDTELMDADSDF

Compound | IC50 [µM]
Cc1cnc(-c2cc(N3CCc4nc(N5CCOCC5)sc4C3)ncc2Cl)c(C)c1 [Compound A-29, 4-(5-(5′-chloro-3,5-dimethyl-[2,4′-bipyridin]-2′-yl)-4,5,6,7-tetrahydrothiazolo[5,4-c]pyridin-2-yl)morpholine] | 0.169
Cc1cnc(-c2cc(N3CC(C)(C)c4nc(N5CCC(O)CC5)ncc4C3=O)ncc2Cl)c(C)c1 [Compound A-83, 6-(5′-chloro-3,5-dimethyl-2,4′-bipyridin-2′-yl)-2-(4-hydroxy-piperidin-1-yl)-8,8-dimethyl-7,8-dihydro-pyrido[4,3-d] pyrimidin-5(6H)-one] | 0.211
CCNc1nc2c(s1)CN(c1cc(-c3ncc(C)cc3C)c(Cl)cn1)CC2 [Compound A-35, 5-(5′-chloro-3,5-dimethyl-2,4′-bipyridin-2′-yl)-N-ethyl-4,5,6,7-tetrahydro-thiazolo-[5,4-c]pyridin-2-amine] | 0.26
Cc1cnc(-c2cc(N3CCc4nc(N5CCC(O)CC5)sc4C3)ncc2Cl)c(C)c1 [Compound A-32, 1-(5-(5′-chloro-3,5-dimethyl-2,4′-bipyridin-2′-yl)-4,5,6,7-tetrahydro-thiazolo-[5,4-c]pyridin-2-yl)piperidin-4-ol] | 0.0867
Cc1cnc(-c2cc(N3CCc4nc(NCC5CC5)sc4C3)ncc2Cl)c(C)c1 [Compound A-31, 5-(5′-chloro-3,5-dimethyl-2,4′-bipyridin-2′-yl)-N-(cyclopro-pylmeth-yl)-4,5,6,7-tetrahydro-thiazolo-[5,4-c]pyridin-2-amine] | 0.0548
Cc1cnc(-c2cc(N3CCc4nc(N5CC(O)C5)ncc4C3)ncc2Cl)c(C)c1 [Compound A-72, 1-(6-(5′-chloro-3,5-dimethyl-2,4′-bipyridin-2′-yl)-5,6,7,8-tetrahydro-pyrido-[4,3-d]pyrimidin-2-yl)azetidin-3-ol] | 0.283
Cc1cnc(-c2cc(N3Cc4cnc(NC5CC5)nc4C(C)(C)C3)ncc2Cl)c(C)c1 [Compound A-80, 6-(5′-chloro-3,5-dimethyl-2,4′-bipyridin-2′-yl)-N-cyclopropyl-8,8-dimethyl-5,6,7,8-tetrahydro-pyrido-[4,3-d]pyrimidin-2-amine] | 0.0281
CCOc1ncc2c(n1)CCN(c1cc(-c3ncc(C)cc3C)c(Cl)cn1)C2 [Compound A-67, 6-(5′-chloro-3,5-dimethyl-2,4′-bipyridin-2′-yl)-2-ethoxy-5,6,7,8-tetrahydro-pyrido-[4,3-d]pyrim-idine] | 0.207
Cc1cnc(-c2cc(N3CCc4nc(NC(=O)CCN5CCOCC5)sc4C3)ncc2Cl)c(C)c1 [Compound A-39, N-(5-(5′-chloro-3,5-dimethyl-2,4′-bipyridin-2′-yl)-4,5,6,7-tetrahydro-thiazolo-[5,4-c]pyridin-2-yl)-3-morpholino-propan-amide] | 0.134
Clc1cnc(N2CCc3nc(NC4CC4)ncc3C2)cc1-c1ncccn1 [Compound A-115, 6-(5-chloro-4-(pyrimidin-2-yl)pyridin-2-yl)-N-cyclopropyl-5,6,7,8-tetrahydropyrido[4,3-d]pyrimidin-2-amine] | > 1
Cc1cnc(-c2cc(N3CCc4nc(N)sc4C3)ncc2Cl)c(C)c1 [Compound A-22, 5-(5′-chloro-3,5-dimethyl-2,4′-bipyridin-2′-yl)-4,5,6,7-tetrahydro-thiazolo-[5,4-c]pyridin-2-amine] | 0.768
Cc1cnc(-c2cc(N3CCc4nc(NC(C)C)ncc4C3)ncc2Cl)c(C)c1 [Compound A-60, 6-(5′-chloro-3,5-dimethyl-2,4′-bipyridin-2′-yl)-N-isopropyl-5,6,7,8-tetrahydro-pyrido-[4,3-d]pyrimidin-2-amine] | 0.018
Cc1cccnc1-c1cc(N2CCc3nc(NC4CC4)ncc3C2)ncc1Cl [Compound A-111, 6-(5′-chloro-3-methyl-2,4′-bipyridin-2′-yl)-N-cyclopropyl-5,6,7,8-tetrahydropyrido[4,3-d]pyrimidin-2-amine] | 0.0829
Cc1cnc(-c2cc(N3Cc4cnc(N5CC(C)NC(C)C5)nc4C(C)(C)C3)ncc2Cl)c(C)c1 (stereo not drawn) [Compound A-82, 6-(5′-chloro-3,5-dimethyl-2,4′-bipyridin-2′-yl)-2-(3,5-dimethyl-piperazin-1-yl)-8,8-dimethyl-5,6,7,8-tetrahydro-pyrido-[4,3-d]pyrimidine] | 0.105
Cc1cnc(-c2cc(N3CCc4nc(N5CC(C)NC(C)C5)ncc4C3=O)ncc2Cl)c(C)c1 (stereo not drawn) [Compound A-101, 6-(5′-chloro-3,5-dimethyl-2,4′-bipyridin-2′-yl)-2-(3,5-dimethyl-piperazin-1-yl)-7,8-dihydro-pyrido[4,3-d]pyrimidin-5(6H)-one] | 0.253
Cc1cnc(-c2cc(N3CCc4nc(S(C)(=O)=O)ncc4C3)ncc2Cl)c(C)c1 [Compound A-64, 6-(5′-chloro-3,5-dimethyl-2,4′-bipyridin-2′-yl)-2-(methyl-sulfonyl)-5,6,7,8-tetrahydro-pyrido-[4,3-d]pyrim-idine] | 0.5
Cc1cnc(-c2cc(N3CCc4nc(N5CCCC5)sc4C3)ncc2Cl)c(C)c1 [Compound A-34, 5-(5′-chloro-3,5-dimethyl-2,4′-bipyridin-2′-yl)-2-(pyrrolidin-1-yl)-4,5,6,7-tetrahydro-thiazolo-[5,4-c]pyridine] | 0.371

Compound | IC50 [µM]
Cc1cnc(-c2cc(N3CCc4nc(N5CCC(O)CC5)ncc4C3)ncc2Cl)c(C)c1 [Compound A-55, 1-(6-(5′-chloro-3,5-dimethyl-2,4′-bipyridin-2′-yl)-5,6,7,8-tetrahydro-pyrido-[4,3-d]pyrimidin-2-yl)piperidin-4-ol] | 0.0051
Cc1cnc(-c2cc(N3Cc4cnc(N5CCCC5)nc4C(C)(C)C3)ncc2Cl)c(C)c1 [Compound A-81, 6-(5′-chloro-3,5-dimethyl-2,4′-bipyridin-2′-yl)-8,8-dimethyl-2-(pyrrolidin-1-yl)-5,6,7,8-tetrahydro-pyrido-[4,3-d]pyrimidine] | 0.167
Cc1cnc(-c2cc(N3CCc4nc(NC5CCCC5)ncc4C3)ncc2Cl)c(C)c1 [Compound A-70, 6-(5′-chloro-3,5-dimethyl-2,4′-bipyridin-2′-yl)-N-cyclopentyl-5,6,7,8-tetrahydro-pyrido-[4,3-d]pyrim-idin-2-amine] | 0.117
CC(=O)Nc1nc2c(s1)CN(c1cc(-c3ncc(C)cc3C)c(Cl)cn1)CC2 [Compound A-23, N-(5-(5′-chloro-3,5-dimethyl-[2,4′-bipyridin]-2′-yl)-4,5,6,7-tetrahydrothiazolo[5,4-c]pyridin-2-yl)acetamide] | 0.363
Cc1cnc(-c2cc(N3CCc4nc(NS(C)(=O)=O)sc4C3)ncc2Cl)c(C)c1 [Compound A-45, N-(5-(5′-chloro-3,5-dimethyl-2,4′-bipyridin-2′-yl)-4,5,6,7-tetrahydro-thiazolo-[5,4-c]pyridin-2-yl)methane-sulfon-amide] | > 1
Cc1cnc(-c2cc(N3CCc4nc(NCC5CC5)ncc4C3)ncc2Cl)c(C)c1 [Compound A-65, 6-(5′-chloro-3,5-dimethyl-2,4′-bipyridin-2′-yl)-N-(cyclopropyl-meth-yl)-5,6,7,8-tetrahydro-pyrido-[4,3-d]pyrimidin-2-amine] | 0.0853
Cc1cnc(-c2cc(N3CCn4cc(C(=O)Nc5ccc(F)cc5)nc4C3)ncc2Cl)c(C)c1 [Compound A-21, 7-(5′-chloro-3,5-dimethyl-2,4′-bipyridin-2′-yl)-N-(4-fluorophenyl)-5,6,7,8-tetrahydro-imidazo-[1,2-a]pyrazine-2-carboxamide] | > 1
CCOc1nc2c(s1)CN(c1cc(-c3ncc(C)cc3C)c(Cl)cn1)CC2 [Compound A46, 5-(5′-chloro-3,5-dimethyl-2,4′-bipyridin-2′-yl)-2-ethoxy-4,5,6,7-tetrahydro-thiazolo-[5,4-c]pyridine] | 0.158
Cc1cnc(-c2cc(N3CCc4nc(N(C)CCO)ncc4C3)ncc2Cl)c(C)c1 [Compound A-54, 2-((6-(5′-chloro-3,5-dimethyl-2,4′-bipyridin-2′-yl)-5,6,7,8-tetrahydro-pyrido-[4,3-d]pyrimidin-2-yl)(methyl)-amino)ethanol] | 0.0229
Cc1cnc(-c2cc(N3CCc4nc(N5CCC(O)C5)ncc4C3=O)ncc2Cl)c(C)c1 (stereo not drawn) [Compound A-105, 6-(5′-chloro-3,5-dimethyl-2,4′-bipyridin-2′-yl)-2-(3-hydroxy-pyrrolidin-1-yl)-7,8-dihydro-pyrido[4,3-d]pyrimidin-5(6H)-one] | 0.272
Cc1cnc(-c2cc(N3CCc4nc(NC(=O)C(C)C)sc4C3)ncc2Cl)c(C)c1 [Compound A-24, N-(5-(5′-chloro-3,5-dimethyl-2,4′-bipyridin-2′-yl)-4,5,6,7-tetrahydro-thiazolo-[5,4-c]pyridin-2-yl)isobutyr-amide] | 0.0583
CCNC(=O)Nc1nc2c(s1)CN(c1cc(-c3ncc(C)cc3C)c(Cl)cn1)CC2 [Compound A-42, 1-(5-(5′-chloro-3,5-dimethyl-2,4′-bipyridin-2′-yl)-4,5,6,7-tetrahydro-thiazolo-[5,4-c]pyridin-2-yl)-3-ethylurea] | 0.19
Cc1cnc(-c2cc(N3CCc4nc(NC5CC5)ncc4C3)ncc2Cl)c(C)c1 [Compound A-52, 6-(5′-chloro-3,5-dimethyl-2,4′-bipyridin-2′-yl)-N-cyclopropyl-5,6,7,8-tetrahydropyrido[4,3-d]pyrimidin-2-amine] | 0.0054
CCNc1ncc2c(n1)CCN(c1cc(-c3ncc(C)cc3C)c(Cl)cn1)C2 [Compound A-51, 6-(5′-chloro-3,5-dimethyl-2,4′-bipyridin-2′-yl)-N-ethyl-5,6,7,8-tetrahydro-pyrido-[4,3-d]pyrimidin-2-amine] | 0.0168
Cc1cnc(-c2cc(N3CCc4nc(OCC5CC5)ncc4C3)ncc2Cl)c(C)c1 [Compound A-73, 6-(5′-chloro-3,5-dimethyl-2,4′-bipyridin-2′-yl)-2-(cyclopropyl-methoxy)-5,6,7,8-tetrahydro-pyrido-[4,3-d]pyrim-idine] | 0.084
Cc1cnc(-c2cc(N3CCn4cc(C(=O)OC(C)C)nc4C3)ncc2Cl)c(C)c1 [Compound A-15, isopropyl 7-(5′-chloro-3,5-dimethyl-2,4′-bipyridin-2′-yl)-5,6,7,8-tetrahydro-imidazo-[1,2-a]pyrazine-2-carboxylate] | 0.589
